The source of these data is patent US20090117089A1, “GLYCOLIPIDS AND ANALOGUES THEREOF AS ANTIGENS FOR NK T CELLS” (The Rockefeller University, priority 2005, published 2009).

“Also recorded” adds a separate entry of the source.

The subject of test [1] is CD1d reactive T cell hybridomas with an invariant Vα14i T cell antigen receptor. The test can be described thus: 1.2 hybridoma assay (IL-2 release by ELISA). It is filed as cell-based, mouse. Conditions: for IL-2 secretion: CD1d coated plates, Sphingomonas glycolipids and analogues; for IL-2 production (relative activity of fatty acyl chain analogs): 0.0001-1 μg/ml, CD1d transfected A20 cells. On the procedure:
As a measure of T cell activation, IL-2 release into the tissue culture medium was measured after 16 hours culture by an ELISA assay.
As a measure of T cell activation, IL-2 and IFN-γ release into the tissue culture medium was measured after 16 hours culture by an ELISA assay.
(In general: ELISA stands for enzyme-linked immunosorbent assay.)

For the next test, the system named is spleen CD11c+ DCs. The test can be described thus: DC maturation in vivo (surface markers, flow cytometry). Further details: species or system mouse. The conditions noted are these: mouse, in vivo. On the procedure: 2×10^7 irradiated J558-Ld^− cells, were injected i.v. or s.c. into Balb/c mice with or without α-Gal Cer as a DC maturation stimulus. In some experiments we compared α-Gal Cer to agonistic anti-CD40 mAb (1C10, 25 μg i.p.) or the toll like receptor ligands, poly IC ([…], Invivogen) or lipopolysaccharide (20 μgm, Sigma). The mice had been given CFSE-labeled PICTL CD8^+ T cells i.v. 1 d earlier, or were naive animals. In some experiments, mice were sacrificed 3 d later, and T cell division and activation in spleen were analyzed by flow cytometry. Additionally, 7 d or 2 months later, 5×10^6 live J558 tumor cells were inoculated subcutaneously. 5×10^6 Meth A fibrosarcoma was used as a control tumor for challenge. Tumor cell growth was measured with calipers every other day. Mice were scored positive for tumor as soon as tumors became palpable and grew progressively. Mice were euthanized when tumor size exceeded 400 mm^2.
T-cell division, phagocytosis of CFSE-labeled tumor cells and acquisition of cell surface-activation markers were determined by flow cytometry. Briefly, spleens were harvested and low-density splenocytes were stained with CD11c-APC and CD8α-PE, CD11b-PE, B220-PE or CD4-PE for the up-take examination. For in vivo proliferation of P1CTL T-cells, spleens were harvested and the splenocytes suspension was staining with CD8α-Cy, Vα8α-PE, CD25-PE, CD62L-PE. For intracellular cytokine staining, splenocytes were stimulated in vitro with 1 µg/ml P1A peptide in 5 μg/ml brefeldin A (Sigma-Aldrich) at 37° C. for 4 hrs. The cells were first stained with CD8α-Cy-Chrome™, fixed and permeabilized with cytofix-cytoperm buffer (BD Biosciences), and stained with PE conjugated mAbs to IL-2 or IFN-γ.
Flow cytometry. Acquisition of cell surface-activation markers was determined by flow cytometry. […] Spleen CD11c+ DCs were isolated using anti-CD11c magnetic beads and stained with CD11c-FITC, CD8α− allophycocyanin, and PE-Conjugated I-Ad, CD40, CD80, CD86, CD119, B7-H1 and B7-DC. We used a FACSCalibur™ with data analysis in FlowJo (Tree Star).
Background: Flow cytometry measures light scatter and fluorescence of single cells or particles in a stream.

The subject of test [2] is Vα24i human NKT cell line. As to the kind of experiment: In vitro cytokine secretion assay using human NKT cell lines. The conditions noted are these: for IFN-γ secretion / IL-4 secretion: CD14+ immature dendritic cells, 10 μg/ml glycolipid (1-10 μg/ml for 3-O-sulfo-α-galactosylceramide), 10 IU/ml IL-2. The test is classed as cell-based. As for the experimental part:
(§1) Human NKT cell lines, expressing the Vα24i T cell receptor as well as CD161, were generated as follows: Anti-CD161 monoclonal antibodies, and anti-CD14 monoclonal antibodies, each coupled to magnetic beads (Miltenyi biotec, Auburn, Calif.), were used sequentially to isolate CD161^+ cells and CD14^+ cells from leukopaks. Immature dendritic cells were generated from the CD14^+ cells after a two-day incubation in the presence of 300 U/ml GM-CSF (R&D systems, Minneapolis, Minn.) and 100 U/ml IL-4 (R&D systems, Minneapolis, Minn.). Following irradiation with 2000 rads, the immature dendritic cells were co-cultured with syngeneic CD161^+ cells in the presence of 100 ng/ml of alpha-galactosylceramide and 10 IU/ml of IL-2 (Invitrogen, Carlsbad Calif.) for 10 to 14 days. After stimulating the CD161^+ cells a second time with alpha-galactosylceramide-pulsed, irradiated immature dendritic cells, NKT cell lines were shown by flow cytometry to express both CD161^+ and V 24i TCR (99% purity).
IFN-γ and IL-4 secretion by the Vα 24i human NKT cell line was determined by ELISA (BD Pharmingen, San Diego, Calif.) after culture for 16 hours. For these assays, 1×10^5 Vα 24i human NKT cells were co-cultured with 4×10^5 irradiated, immature CD14^+ dendritic cells, in the presence of the glycolipid compounds at 10 μg/ml in a 96-well flat-bottom plate.
as §1, with “of 100-0.1” for “of 100”
In some cases, Hela cells were transfected with a human CD1d construct [Xing et al. 2005. Bioorg Med Chem 13: 2907], and were used to present the glycolipids, via pulsing with the respective compounds at the indicated concentration, to NKT lines.
IFN-γ secretion by the Vα 24i human NKT cell line was determined by ELISA (BD Pharmingen, San Diego, Calif.) after culture for 16 hours. For these assays, 1×10^5 Vα 24i human NKT cells were co-cultured with 4×10^5 irradiated, immature CD14^+ dendritic cells, in the presence of the glycolipid compounds at 10 μg/ml in a 96-well flat-bottom plate.

Test [3] relates to human CD161+ NK+NKT cells. As to the kind of experiment: Cytokine secretion by human CD161+ NK+NKT cells in the presence of CD14+ DCs. It is filed as cell-based. As for the experimental part:
Human Vα24i NKT cells response to synthetic Sphingomonas and sulfatide glycolipids, in terms of IFN-γ (a) and IL-4 (b) release after culture with 4×10^5 autologous immature CD14+ dendritic cells pulsed with the indicated glycolipid antigens at 10 μg/ml. Negative controls included similar numbers of NKT cells and dendritic cells, cultured without added glycolipid. Data represent mean±S.D. of duplicate well; (c) in vitro INF-γ secretion by human CD161^+ NK+NKT cells (2×10^5/well) in the presence of CD14^+ DCs (4×10^5/well) and 20 μg/ml of various glycolipids; (d) in vitro IL-4 secretion by human CD161^+ NK+NKT cells (2×10^5/well) in the presence of CD14^+ DCs (4×10^5/well) and 20 μg/ml of various glycolipids.

Test [4] deals with Vα24i human NKT cell line. As to the kind of experiment: In vitro cytokine secretion assay using human NKT cell lines. It is filed as cell-based. The conditions noted are these: CD14+ DCs; 100-0.1 ng/mL; all doses.

In the case of `CCCCCCCCCCCCCCC[C@@H](O)[C@H](COC1OC(CO)C(O)C(O)C1O)NC(=O)CCCCCCCCCCCCC` (some centres unmarked) [Compound 7], the IL-2 secretion result in test [1] was “greater IL-2 secretion”.

poly IC: the “phenotypic changes of DC maturation (CD40, CD86, MHC class II, B7-H1, B7-DC up, CD119 down)” value in the test on spleen CD11c+ DCs is recorded as “induced similar phenotypic changes of maturation”.

“3-O-sulfo-β-galactosylceramide [Compound 10]”: in test [2], the IFN-γ secretion entry is “elicit both IFN-γ and IL-4 production”; the IL-4 secretion entry is “elicit both IFN-γ and IL-4 production”. For the same compound, in test [3], the “affinity for NKT lymphocytes” value was “minimal to no affinity for NKT lymphocytes”.

Turning to “2-Hexacosylamino-1-O-(3-O-sulfo-α-D-galactopyranosyl)-D-ribo-1,3,4-octadecantriol, Sodium Salt [Compound 4]”, in test [2], the IFN-γ secretion entry was “approximately half that of α-GalCer” and the IL-4 secretion entry is “approximately half that of α-GalCer”. In test [1], the “biological activity in the 1.2 hybridoma assay (IL-2 secretion)” value was “caused significant IL-2 secretion”. In addition, the “activity relative to αGalCer (dose response curves, IL-2)” value in test [1] (data not shown) is listed as “somewhat less active than αGalCer”. Also, the “IL-2 release from the hybridomas” value in test [1] (glycolipid at 10 μg/ml, 16 hours culture) is on record as “stimulated significant IL-2 release”. Moreover, in test [3] (glycolipid presented by CD14+ DCs, 10-20 μg/mL), the “IL-4 secretion by human NKT cells” value was “efficiently stimulated IL-4 and IFN-γ secretion”. Further, the “interferon-γ secretion by human NKT cells” value in test [3] (glycolipid presented by CD14+ DCs, 10-20 μg/mL, compared to α-GalCer, Sodium Salt) was “superior; also recorded: efficiently stimulated IL-4 and IFN-γ secretion”.

Consider `CCCCCCCCCCCCCCC[C@@H](O)[C@H](COC1OC(C(=O)O)C(O)C(O)C1O)NC(=O)[C@@H](O)CCCCCCCCCCCC` (some centres unmarked) [Compound 6], for which the “reactivity of human Vα24i NKT cells” value in test [2] was “conserved”.

For the compound `CCCCCCCCCCCCCC[C@@H](O)[C@@H](O)[C@H](COC1OC(CO)C(O)C(O)C1O)NC(=O)CCCCCCCc1ccccc1` (some centres unmarked) [Compound 84], the “IL-2 production (relative activity of fatty acyl chain analogs)” value in test [1] was “significant increase of IL-2 production”. In test [4], the “IFN-γ secretion compared to KRN” value is reported as “consistently stimulating greater IFN-γ secretion”.

For the compound `CCCCCCCCCCCCCCC[C@@H](O)[C@H](COC1OC(C(=O)O)C(O)C(O)C1O)NC(=O)CCCCCCCCCCCCC` (some centres unmarked) [Compound 5], in test [2], the “reactivity of human Vα24i NKT cells” value is “conserved”.

`CCCCCCCCCCCCCC[C@@H](O)[C@@H](O)[C@H](COC1OC(CO)C(O)C(O)C1O)NC(=O)CCCCCc1ccccc1` (some centres unmarked) [Compound 83]: the “selectivity IFN-γ versus IL-4 production” value in test [2] is reported as “high ratio of IFN-γ/IL-4 activity”. Moreover, the “IL-2 production (relative activity of fatty acyl chain analogs)” value in test [1] is on record as “significant increase of IL-2 production”. For the same compound, the “IFN-γ secretion compared to KRN” value in test [4] is “consistently stimulating greater IFN-γ secretion”.

Regarding `CCCCCCCCCCCCCCC[C@@H](O)[C@H](COC1OC(CO)C(O)C(O)C1O)NC(=O)[C@@H](O)CCCCCCCCCCCC` (some centres unmarked) [Compound 8], the IL-2 secretion entry in test [1] is reported as “less able to activate IL-2 secretion when compared with 5”.
